Patent US20240299554A1, “PRODRUGS WITH 1-(DISULFANYL)ALKYLOXY-CARBONYL UNITS” (PHARMACYTICS B.V., priority 2021, published 2024)

What was measured:
[1] = Oral bioavailability of conjugates in female Beagle dogs (AUC of parent drug); type: in vivo; details: for Δ AUC (increase of AUC of parent drug derived from conjugate compared to parent drug as such): female Beagle dogs, single oral dose 7.5 or 15 μmol/kg by gavage, 24 h sampling, Table 1a; for generation of parent drug after oral administration: oral administration to beagle dogs
Description: Relative and absolute bioavailability may be determined in different animal models and according to different protocols. The following protocol is typical for determining bioavailability in female Beagle dogs and was used in the present invention. The animals were deprived from food over a time period of 8 h prior to administration of the compounds according to the present invention and over a time period of 2 h after administration of the compounds according to the present invention. Water was supplied without limitation. On the study day, the animals received the compounds according to the present invention, at a single dose of 7.5 or 15 μmol/kg, by oral gavage, formulated in mixtures of propylene glycol, ethanol and 0.9% NaCl+5% mannitol in water. Blood samples were collected from the jugular vein on the following time points: 0.25, 0.5, 1, 2, 4, 8 and 24 hours after dosing of the compounds according to the present invention. […] Pharmacokinetic parameters were calculated from concentration versus time data using non-compartmental pharmacokinetic methods using Phoenix pharmacokinetic software. Data are compared to the parent drugs to establish improvement of its oral bioavailability by the compounds according to the present invention.

[2] = In vitro treatment of conjugates with glutathione, release of parent drug followed by LC-MS at 254 nm; type: in vitro ADME; details: for formation of parent drug on in vitro treatment with glutathione: glutathione 5 eq., phosphate buffer pH=7.6, 37° C. (for 102); for fate of glutathione adduct formed during glutathione treatment: adduct formed in situ from the conjugate
Excerpt: (§1) FIGS. 1A and 1B are graphs showing the release of the drug Cinacalcet after an in vitro treatment of Cinacalcet conjugate 102 (not according to the invention) with glutathione. […] FIG. 1B represent the concentration of Cinacalcet conjugate 102 and Cinacalcet versus time. The presence of the compounds was followed at 254 nm by LC-MS.
as §1, with “3A” for “1A”, “3B” for “1B”, “60 (according” for “102 (not according”, “60” for “102”
The results are shown in FIGS. 1A and B. In FIG. 1A is shown the disappearance of conjugate 102 over time after treatment with glutathione, the formation of Cinacalcet and the appearance and partial disappearance of an intermediate (HS-Et-Cinacalcet) and a glutathione adduct (GSS—Et-Cinacalcet)—see below.

SMILES	Δ AUC (increase of AUC of parent drug derived from conjugate compared to parent drug as such) [1]	generation of parent drug after oral administration [1]	formation of parent drug on in vitro treatment with glutathione [2]	also measured
CN(CC[C@@H](Oc1cccc2ccccc12)c1cccs1)C(=O)OCSSCCO[C@@H]1O[C@H](CO)[C@H](O)[C@H](O)[C@H]1O [Compound 61]	++ (++ denotes a 2 to 4-fold increase of the AUC compared to the parent drug)	readily resulted in the generation of significant amounts of duloxetine	very fast and complete formation of Duloxetine	
CCCN(COCCSSCOC(=O)N(CCCc1cccc(C(F)(F)F)c1)[C@H](C)c1cccc2ccccc12)C(=O)O[C@@H]1O[C@H](CO)[C@H](O)[C@H](O)[C@H]1O [Compound 93a]	+++ (+++ denotes a >4-fold increase of the AUC compared to the parent drug)			
CCCN(COCCSSCOC(=O)N(CCCc1cccc(C(F)(F)F)c1)[C@H](C)c1cccc2ccccc12)C(=O)O[C@@H]1O[C@H](CO)[C@@H](O)[C@H](O)[C@H]1O [Compound 92a]	+++ (+++ denotes a >4-fold increase of the AUC compared to the parent drug)			
C[C@H](c1cccc2ccccc12)N(CCCc1cccc(C(F)(F)F)c1)C(=O)OCSSCCNC(=O)O[C@@H]1O[C@H](CO)[C@@H](O)[C@H](O)[C@H]1O [Compound 90]	+ (+ denotes a 1.1 to 2-fold increase of the AUC compared to parent drug)			
C[C@H](c1cccc2ccccc12)N(CCCc1cccc(C(F)(F)F)c1)C(=O)OCSSC[C@H](NC(=O)CC[C@H](N)C(=O)O)C(=O)NCC(=O)O [GSS-Me-Cinacalcet]				fate of glutathione adduct formed during glutathione treatment [2]: completely converted into Cinacalcet within one hour
C[C@H](c1cccc2ccccc12)N(CCCc1cccc(C(F)(F)F)c1)C(=O)OCSSCCO[C@@H]1O[C@H](CO)[C@@H](O)[C@H](O)[C@H]1O [Compound 60]	++ (++ denotes a 2 to 4-fold increase of the AUC compared to the parent drug)	readily resulted in the generation of significant amounts of cinacalcet	very fast and complete formation of Cinacalcet	
CN(CC[C@H](Oc1cccc2ccccc12)c1cccs1)C(=O)OCSSC[C@H](NC(=O)CC[C@H](N)C(=O)O)C(=O)NCC(=O)O [GSS-Me-Duloxetine]				fate of glutathione adduct formed during glutathione treatment [2]: completely converted into Duloxetine within one hour
CCCN(COCCSSCOC(=O)N(CCCc1cccc(C(F)(F)F)c1)[C@H](C)c1cccc2ccccc12)C(=O)O[C@@H]1O[C@H](CF)[C@@H](O)[C@H](O)[C@H]1O [Compound 92b]	+++ (+++ denotes a >4-fold increase of the AUC compared to the parent drug)			
CN(CC[C@@H](Oc1cccc2ccccc12)c1cccs1)C(=O)OCCSSCCO[C@@H]1O[C@H](CO)[C@@H](O)[C@H](O)[C@H]1O [Compound 103]		did not produce any detectable amount of Duloxetine	very slow and incomplete formation of duloxetine	conversion of pro-drug into parent drug within 8 hours ([2]; glutathione treatment): less than half
C[C@H](c1cccc2ccccc12)N(CCCc1cccc(C(F)(F)F)c1)C(=O)OCCSSCCO[C@@H]1O[C@H](CO)[C@@H](O)[C@H](O)[C@H]1O [Compound 102]		did not produce any detectable amount of the drug Cinacalcet	very slow and incomplete formation of Cinacalcet	conversion of pro-drug into parent drug within 8 hours ([2]; glutathione treatment): far from being completely converted into Cinacalcet; conversion of pro-drug into parent drug in 23 hours ([2]; glutathione treatment, 23 hours): less than half
C[C@H](c1cccc2ccccc12)N(CCCc1cccc(C(F)(F)F)c1)C(=O)OCCSSC[C@H](NC(=O)CC[C@H](N)C(=O)O)C(=O)NCC(=O)O [GSS-Et-Cinacalcet]				fate of glutathione adduct formed during glutathione treatment [2]: somewhat more stable than the mercaptoethyl carbamate
